Source: patent US4843066A, “Novel adenosine derivatives and pharmaceutical composition containing them as an active ingredient” (priority 1986, dated 1989)
Where two headings read alike, the source gives them in different places.

Legend:
[1] = in vivo; settings: mouse, oral, in 0.5% C.M.C., ddY male mice, death rate for 7 days
[2] = test system: spontaneously hypertensive rats (SHR); test: Antihypertensive activity (blood pressure after oral administration); format: in vivo; settings: for inhibition in vivo at 200 mg/kg / inhibition in vivo at 10 mg/kg / inhibition in vivo at 100 mg/kg / inhibition in vivo at 30 mg/kg: Rattus norvegicus, decrease vs before; for inhibition in vivo at 200 mg/kg / Blood pressure 2 hrs / Blood pressure 4 hrs / Blood pressure 6 hrs / inhibition in vivo at 10 mg/kg / inhibition in vivo at 100 mg/kg / inhibition in vivo at 30 mg/kg: SHR; for Blood pressure 2 hrs: 2 hrs after administration; for Blood pressure 2 hrs / Blood pressure 4 hrs / Blood pressure 6 hrs: mean ± S.E.; for Blood pressure 4 hrs: 4 hrs after administration; for Blood pressure 6 hrs: 6 hrs after administration
Method: The test compounds, which were dissolved or suspended in 0.5% C.M.C. aqueous solution, were orally administered to groups of 3 or 4 spontaneously hypertensive rats (SHR), weighing about 300 to 400 g. Blood pressure was measured before and 2, 4 and 6 hours after the administration.

[3] = in vivo
[4] = oral 200 mg/kg, 2 hrs, read-out: Blood pressure 2 hrs [Decrease]
[5] = oral 200 mg/kg, 4 hrs, read-out: Blood pressure 4 hrs [Decrease]
[6] = oral 200 mg/kg, 6 hrs, read-out: Blood pressure 6 hrs [Decrease]
[7] = oral 10 mg/kg, 2 hrs, read-out: Blood pressure 2 hrs [Decrease]
[8] = oral 10 mg/kg, 4 hrs, read-out: Blood pressure 4 hrs [Decrease]
[9] = oral 10 mg/kg, 6 hrs, read-out: Blood pressure 6 hrs [Decrease]
[10] = oral 100 mg/kg, 2 hrs, read-out: Blood pressure 2 hrs [Decrease]
[11] = oral 100 mg/kg, 4 hrs, read-out: Blood pressure 4 hrs [Decrease]
[12] = oral 100 mg/kg, 6 hrs, read-out: Blood pressure 6 hrs [Decrease]
[13] = oral 30 mg/kg, 2 hrs, read-out: Blood pressure 2 hrs [Decrease]
[14] = oral 30 mg/kg, 4 hrs, read-out: Blood pressure 4 hrs [Decrease]
[15] = oral 30 mg/kg, 6 hrs, read-out: Blood pressure 6 hrs [Decrease]

SMILES: CO[C@H]1[C@@H](O)[C@H](n2cnc3c(N)ncnc32)O[C@@H]1CO [Compound 2, 3'-O-methyladenosine]
- LD50 at 168 h [1]: > 2000 mg/kg
- inhibition in vivo at 200 mg/kg [2, 4]: 41.2%
- inhibition in vivo at 200 mg/kg [2, 5]: 29%
- inhibition in vivo at 200 mg/kg [2, 6]: 27.2%
- Blood pressure 2 hrs ([2]; oral 200 mg/kg): 135 ± 28 mmHg
- Blood pressure 4 hrs ([2]; oral 200 mg/kg): 163 ± 40 mmHg
- Blood pressure 6 hrs ([2]; oral 200 mg/kg): 167 ± 47 mmHg

SMILES: CCO[C@@H]1[C@H](O)[C@@H](CO)O[C@H]1n1cnc2c(NC)nc(C)nc21 [Compound 22, 2,N^6-dimethyl-2'-O-ethyladenosine]
- LD50 at 168 h [1]: ~400 mg/kg
- inhibition in vivo at 10 mg/kg [2, 7]: 25.8%
- inhibition in vivo at 10 mg/kg [2, 8]: 18.8%
- inhibition in vivo at 10 mg/kg [2, 9]: 13.1%
- Blood pressure 2 hrs ([2]; oral 10 mg/kg): 168 ± 6 mmHg
- Blood pressure 4 hrs ([2]; oral 10 mg/kg): 185 ± 7 mmHg
- Blood pressure 6 hrs ([2]; oral 10 mg/kg): 197 ± 3 mmHg

SMILES: CO[C@@H]1[C@H](O)[C@@H](CO)O[C@H]1n1cnc2c(N)nc(Cl)nc21 [Compound 27, 2-chloro-2'-O-methyladenosine]
- LD50 at 168 h [1]: ~400 mg/kg
- inhibition in vivo at 100 mg/kg [2, 10]: 68.4%
- inhibition in vivo at 100 mg/kg [2, 11]: 64.8%
- inhibition in vivo at 100 mg/kg [2, 12]: 66.9%
- Blood pressure 2 hrs ([2]; oral 100 mg/kg): 70 ± 10 mmHg
- Blood pressure 4 hrs ([2]; oral 100 mg/kg): 78 ± 8 mmHg
- Blood pressure 6 hrs ([2]; oral 100 mg/kg): 73 ± 16 mmHg

SMILES: CO[C@@H]1[C@H](O)[C@@H](CO)O[C@H]1n1cnc2c(N)ncnc21 [Compound 1, 2'-O-methyladenosine]
- LD50 at 168 h [1]: > 2000 mg/kg
- inhibition in vivo at 200 mg/kg [2, 4]: 53.2%
- inhibition in vivo at 200 mg/kg [2, 5]: 45.8%
- inhibition in vivo at 200 mg/kg [2, 6]: 42.8%
- Blood pressure 2 hrs ([2]; oral 200 mg/kg): 103 ± 21 mmHg
- Blood pressure 4 hrs ([2]; oral 200 mg/kg): 121 ± 32 mmHg
- Blood pressure 6 hrs ([2]; oral 200 mg/kg): 128 ± 41 mmHg

SMILES: COC[C@H]1O[C@@H](n2cnc3c(N)ncnc32)[C@H](O)[C@@H]1O [Compound 11, 5'-O-methyladenosine]
- LD50 at 168 h [1]: 800 mg/kg
- inhibition in vivo at 30 mg/kg [2, 13]: 18.2%
- inhibition in vivo at 30 mg/kg [2, 14]: 5.9%
- inhibition in vivo at 30 mg/kg [2, 15]: 6.6%
- Blood pressure 2 hrs ([2]; oral 30 mg/kg): 189 ± 3 mmHg
- Blood pressure 4 hrs ([2]; oral 30 mg/kg): 206 ± 10 mmHg
- Blood pressure 6 hrs ([2]; oral 30 mg/kg): 204 ± 9 mmHg

SMILES: CNc1nc(C)nc2c1ncn2[C@@H]1O[C@H](COC)[C@@H](O)[C@H]1O [Compound 24, 2,N^6,5'-O-trimethyladenosine]
- LD50 at 168 h [1]: 1320 mg/kg
- inhibition in vivo at 10 mg/kg [2, 7]: 43.3%
- inhibition in vivo at 10 mg/kg [2, 8]: 27%
- inhibition in vivo at 10 mg/kg [2, 9]: 23%
- Blood pressure 2 hrs ([2]; oral 10 mg/kg): 128 ± 7 mmHg
- Blood pressure 4 hrs ([2]; oral 10 mg/kg): 165 ± 7 mmHg
- Blood pressure 6 hrs ([2]; oral 10 mg/kg): 174 ± 4 mmHg

SMILES: CCO[C@@H]1[C@H](O)[C@@H](CO)O[C@H]1n1cnc2c(N)ncnc21 [Compound 3, 2'-O-ethyladenosine]
- LD50 at 168 h [1]: 750 to 1000 mg/kg
- inhibition in vivo at 100 mg/kg [2, 10]: 52.2%
- inhibition in vivo at 100 mg/kg [2, 11]: 49.5%
- inhibition in vivo at 100 mg/kg [2, 12]: 47.3%
- Blood pressure 2 hrs ([2]; oral 100 mg/kg): 102 ± 15 mmHg
- Blood pressure 4 hrs ([2]; oral 100 mg/kg): 106 ± 20 mmHg
- Blood pressure 6 hrs ([2]; oral 100 mg/kg): 111 ± 26 mmHg

SMILES: CO[C@@H]1[C@H](O)[C@@H](CO)O[C@H]1n1cnc2c(N)nc(C)nc21 [Compound 5, 2,2'-O-dimethyladenosine]
- LD50 at 168 h [1]: 540 mg/kg
- inhibition in vivo at 10 mg/kg [2, 7]: 40.2%
- inhibition in vivo at 10 mg/kg [2, 8]: 26.5%
- inhibition in vivo at 10 mg/kg [2, 9]: 12.7%
- Blood pressure 2 hrs ([2]; oral 10 mg/kg): 131 ± 6 mmHg
- Blood pressure 4 hrs ([2]; oral 10 mg/kg): 161 ± 11 mmHg
- Blood pressure 6 hrs ([2]; oral 10 mg/kg): 193 ± 24 mmHg

SMILES: CNc1ncnc2c1ncn2[C@@H]1O[C@H](CO)[C@@H](O)[C@H]1OC [Compound 17, N^6-2'-O-dimethyladenosine]
- inhibition in vivo at 30 mg/kg [2, 13]: 17.1%
- inhibition in vivo at 30 mg/kg [2, 14]: 11.7%
- inhibition in vivo at 30 mg/kg [2, 15]: 14.1%
- Blood pressure 2 hrs ([2]; oral 30 mg/kg): 192 ± 15 mmHg
- Blood pressure 4 hrs ([2]; oral 30 mg/kg): 204 ± 5 mmHg
- Blood pressure 6 hrs ([2]; oral 30 mg/kg): 199 ± 8 mmHg

SMILES: CO[C@@H]1[C@H](O)[C@@H](CO)O[C@H]1n1cnc2c(N)nc(F)nc21 [Compound 29, 2-fluoro-2'-O-methyladenosine]
- LD50 at 168 h [1]: > 2000 mg/kg
- inhibition in vivo at 30 mg/kg [2, 13]: 45.9%
- inhibition in vivo at 30 mg/kg [2, 14]: 19.8%
- inhibition in vivo at 30 mg/kg [2, 15]: 16.4%
- Blood pressure 2 hrs ([2]; oral 30 mg/kg): 131 ± 4 mmHg
- Blood pressure 4 hrs ([2]; oral 30 mg/kg): 195 ± 5 mmHg
- Blood pressure 6 hrs ([2]; oral 30 mg/kg): 204 ± 3 mmHg

SMILES: CCO[C@@H]1[C@H](O)[C@@H](CO)O[C@H]1n1cnc2c(N)nc(C)nc21 [Compound 9, 2-methyl-2'-O-ethyladenosine]
- LD50 at 168 h [1]: 500 to 1000 mg/kg
- inhibition in vivo at 30 mg/kg [2, 13]: 23.6%
- inhibition in vivo at 30 mg/kg [2, 14]: 10.7%
- inhibition in vivo at 30 mg/kg [2, 15]: 13.5%
- Blood pressure 2 hrs ([2]; oral 30 mg/kg): 169 ± 7 mmHg
- Blood pressure 4 hrs ([2]; oral 30 mg/kg): 197 ± 5 mmHg
- Blood pressure 6 hrs ([2]; oral 30 mg/kg): 191 ± 9 mmHg

SMILES: CNc1nc(C)nc2c1ncn2[C@@H]1O[C@H](CO)[C@@H](O)[C@H]1OC [Compound 21, 2,N^6,2'-O-trimethyladenosine]
- LD50 at 168 h [1]: ~400 mg/kg
- inhibition in vivo at 30 mg/kg [2, 13]: 23.9%
- inhibition in vivo at 30 mg/kg [2, 14]: 16.9%
- inhibition in vivo at 30 mg/kg [2, 15]: 10.8%
- Blood pressure 2 hrs ([2]; oral 30 mg/kg): 159 ± 20 mmHg
- Blood pressure 4 hrs ([2]; oral 30 mg/kg): 172 ± 7 mmHg
- Blood pressure 6 hrs ([2]; oral 30 mg/kg): 188 ± 8 mmHg

SMILES: Nc1ncnc2c1ncn2[C@@H]1O[C@H](CO)[C@@H](O)[C@H]1O [Adenosine, adenosine]
- inhibition in vivo at 200 mg/kg [2, 4]: -6.1%
- inhibition in vivo at 200 mg/kg [2, 5]: 1.8%
- inhibition in vivo at 200 mg/kg [2, 6]: -3.2%
- Blood pressure 2 hrs ([2]; oral 200 mg/kg): 202 ± 12 mmHg
- Blood pressure 4 hrs ([2]; oral 200 mg/kg): 187 ± 3 mmHg
- Blood pressure 6 hrs ([2]; oral 200 mg/kg): 198 ± 4 mmHg
- hypotensive effect (in words) ([2]; oral administration): does not decrease blood pressure
- bradycardia (side effect) [3]: Bradycardia was observed

SMILES: COC[C@H]1O[C@@H](n2cnc3c(N)nc(C)nc32)[C@H](O)[C@@H]1O [Compound 15, 2,5'-O-dimethyladenosine]
- LD50 at 168 h [1]: 500 to 1000 mg/kg
- inhibition in vivo at 10 mg/kg [2, 7]: 35.2%
- inhibition in vivo at 10 mg/kg [2, 8]: 17.7%
- inhibition in vivo at 10 mg/kg [2, 9]: 9.1%
- Blood pressure 2 hrs ([2]; oral 10 mg/kg): 154 ± 13 mmHg
- Blood pressure 4 hrs ([2]; oral 10 mg/kg): 195 ± 22 mmHg
- Blood pressure 6 hrs ([2]; oral 10 mg/kg): 215 ± 5 mmHg

SMILES: CNc1ncnc2c1ncn2[C@@H]1O[C@H](COC)[C@@H](O)[C@H]1O [Compound 19, N^6-5'-O-dimethyladenosine]
- LD50 at 168 h [1]: 1300 mg/kg
- inhibition in vivo at 30 mg/kg [2, 13]: 43%
- inhibition in vivo at 30 mg/kg [2, 14]: 27.1%
- inhibition in vivo at 30 mg/kg [2, 15]: 26.3%
- Blood pressure 2 hrs ([2]; oral 30 mg/kg): 122 ± 8 mmHg
- Blood pressure 4 hrs ([2]; oral 30 mg/kg): 155 ± 7 mmHg
- Blood pressure 6 hrs ([2]; oral 30 mg/kg): 157 ± 12 mmHg
